According to ChEMBL document CHEMBL3046126, “Synthesis and Herbicidal Activity of New Oxazolidinedione Derivatives” (J Pestic Sci, 1999):

Tests used:
Elatine triandra [1] = test: Pre-emergence herbicidal activity against Elatine triandra assessed as phytotoxic weed control visual ratings at 2.5 kg ai/ha measured after 14 days post treatment under flooded conditions; format: functional
Rotala indica [2] = test: Pre-emergence herbicidal activity against Rotala indica assessed as phytotoxic weed control visual ratings at 2.5 kg ai/ha measured after 14 days post treatment under flooded conditions; format: functional
[3] = tested on: Schoenoplectiella juncoides; test: Pre-emergence herbicidal activity against Schoenoplectiella juncoides assessed as phytotoxic weed control visual ratings at 2.5 kg ai/ha measured after 14 days post treatment under flooded conditions; format: functional
Pontederia vaginalis [4] = test: Pre-emergence herbicidal activity against Monochoria vaginalis assessed as phytotoxic weed control visual ratings at 2.5 kg ai/ha measured after 14 days post treatment under flooded conditions; format: functional
Oryza sativa [5] = test: Pre-emergence phytotoxicity against Oryza sativa cv. Koshihikari (rice) assessed as phytotoxic crop injury visual ratings at 2.5 kg ai/ha measured after 14 days post treatment under flooded conditions; format: organism-based; details: in vivo, other, 336 h
Lindernia procumbens [6] = test: Pre-emergence herbicidal activity against Lindernia procumbens assessed as phytotoxic weed control visual ratings at 2.5 kg ai/ha measured after 14 days post treatment under flooded conditions; format: functional
Cyperus difformis [7] = test: Pre-emergence herbicidal activity against Cyperus difformis assessed as phytotoxic weed control visual ratings at 2.5 kg ai/ha measured after 14 days post treatment under flooded conditions; format: functional
Echinochloa oryzicola [8] = test: Pre-emergence herbicidal activity against Echinochloa oryzicola assessed as phytotoxic weed control visual ratings at 2.5 kg ai/ha measured after 14 days post treatment under flooded conditions; format: functional
Zea mays = test: Pre-emergence phytotoxicity against Zea mays (maize) assessed as phytotoxic crop injury visual ratings at 500 g ai/ha measured after 14 days post treatment under upland field conditions; format: organism-based; details: in vivo, other, 336 h
Chenopodium album = test: Pre-emergence herbicidal activity against Chenopodium album assessed as phytotoxic weed control visual ratings at 500 g ai/ha measured after 14 days post treatment under upland field conditions; format: functional
Amaranthus viridis = test: Pre-emergence herbicidal activity against Amaranthus viridis assessed as phytotoxic weed control visual ratings at 500 g ai/ha measured after 14 days post treatment under upland field conditions; format: functional
Digitaria ciliaris = test: Pre-emergence herbicidal activity against Digitaria ciliaris assessed as phytotoxic weed control visual ratings at 500 g ai/ha measured after 14 days post treatment under upland field conditions; format: functional
Echinochloa crus-galli = test: Pre-emergence herbicidal activity against Echinochloa crus-galli (barnyard grass) assessed as phytotoxic weed control visual ratings at 500 g ai/ha measured after 14 days post treatment under upland field conditions; format: functional
[9] = tested on: Schoenoplectiella juncoides; test: Pre-emergence herbicidal activity against Schoenoplectiella juncoides assessed as phytotoxic weed control visual ratings at 25 g ai/ha measured after 14 days post treatment under flooded conditions; format: functional
Oryza sativa [10] = test: Pre-emergence phytotoxicity against Oryza sativa cv. Koshihikari (rice) assessed as phytotoxic crop injury visual ratings at 25 g ai/ha measured after 14 days post treatment under flooded conditions; format: organism-based; details: in vivo, other, 336 h
Pontederia vaginalis [11] = test: Pre-emergence herbicidal activity against Monochoria vaginalis assessed as phytotoxic weed control visual ratings at 25 g ai/ha measured after 14 days post treatment under flooded conditions; format: functional
Lindernia procumbens [12] = test: Pre-emergence herbicidal activity against Lindernia procumbens assessed as phytotoxic weed control visual ratings at 25 g ai/ha measured after 14 days post treatment under flooded conditions; format: functional
Cyperus difformis [13] = test: Pre-emergence herbicidal activity against Cyperus difformis assessed as phytotoxic weed control visual ratings at 25 g ai/ha measured after 14 days post treatment under flooded conditions; format: functional
Echinochloa oryzicola [14] = test: Pre-emergence herbicidal activity against Echinochloa oryzicola assessed as phytotoxic weed control visual ratings at 25 g ai/ha measured after 14 days post treatment under flooded conditions; format: functional
Rotala indica [15] = test: Pre-emergence herbicidal activity against Rotala indica assessed as phytotoxic weed control visual ratings at 25 g ai/ha measured after 14 days post treatment under flooded conditions; format: functional
Elatine triandra [16] = test: Pre-emergence herbicidal activity against Elatine triandra assessed as phytotoxic weed control visual ratings at 25 g ai/ha measured after 14 days post treatment under flooded conditions; format: functional

SMILES: CC(C)=C1OC(=O)N(c2cc(Cl)cc(Cl)c2)C1=O
- Phytotoxicity (Elatine triandra [1]): 50%
- Phytotoxicity (Rotala indica [2]): 50%
- Phytotoxicity [3]: 30%
- Phytotoxicity (Pontederia vaginalis [4]): 50%
- Phytotoxicity (Oryza sativa [5]): 0%
- Phytotoxicity (Lindernia procumbens [6]): 50%
- Phytotoxicity (Cyperus difformis [7]): 30%
- Phytotoxicity (Echinochloa oryzicola [8]): 0%

SMILES: CCCCCCOc1cc(N2C(=O)OC(=C(C)C)C2=O)c(F)cc1Cl
- Phytotoxicity (Zea mays): 0%
- Phytotoxicity (Chenopodium album): 50%
- Phytotoxicity (Amaranthus viridis): 100%
- Phytotoxicity (Digitaria ciliaris): 10%
- Phytotoxicity (Echinochloa crus-galli): 10%
- Phytotoxicity [9]: 60%
- Phytotoxicity (Oryza sativa [10]): 0%
- Phytotoxicity (Pontederia vaginalis [11]): 90%
- Phytotoxicity (Lindernia procumbens [12]): 70%
- Phytotoxicity (Cyperus difformis [13]): 80%
- Phytotoxicity (Echinochloa oryzicola [14]): 10%
- Phytotoxicity (Rotala indica [15]): 70%
- Phytotoxicity (Elatine triandra [16]): 70%

SMILES: CCC(CC)Oc1cc(N2C(=O)OC(=C(C)C)C2=O)c(F)cc1Cl
- Phytotoxicity (Zea mays): 0%
- Phytotoxicity (Chenopodium album): 90%
- Phytotoxicity (Amaranthus viridis): 90%
- Phytotoxicity (Digitaria ciliaris): 60%
- Phytotoxicity (Echinochloa crus-galli): 30%
- Phytotoxicity [9]: 90%
- Phytotoxicity (Oryza sativa [10]): 0%
- Phytotoxicity (Pontederia vaginalis [11]): 100%
- Phytotoxicity (Lindernia procumbens [12]): 100%
- Phytotoxicity (Cyperus difformis [13]): 100%
- Phytotoxicity (Echinochloa oryzicola [14]): 60%
- Phytotoxicity (Rotala indica [15]): 100%
- Phytotoxicity (Elatine triandra [16]): 100%

SMILES: CC(C)=C1OC(=O)N(c2ccccc2Cl)C1=O
- Phytotoxicity (Elatine triandra [1]): 0%
- Phytotoxicity (Rotala indica [2]): 0%
- Phytotoxicity [3]: 0%
- Phytotoxicity (Pontederia vaginalis [4]): 0%
- Phytotoxicity (Oryza sativa [5]): 0%
- Phytotoxicity (Lindernia procumbens [6]): 0%
- Phytotoxicity (Cyperus difformis [7]): 0%
- Phytotoxicity (Echinochloa oryzicola [8]): 0%

SMILES: CC(C)=C1OC(=O)N(c2cc(O)c(Cl)cc2F)C1=O
- Phytotoxicity (Zea mays): 0%
- Phytotoxicity (Chenopodium album): 10%
- Phytotoxicity (Amaranthus viridis): 0%
- Phytotoxicity (Digitaria ciliaris): 0%
- Phytotoxicity (Echinochloa crus-galli): 0%
- Phytotoxicity [9]: 0%
- Phytotoxicity (Oryza sativa [10]): 0%
- Phytotoxicity (Pontederia vaginalis [11]): 10%
- Phytotoxicity (Lindernia procumbens [12]): 10%
- Phytotoxicity (Cyperus difformis [13]): 30%
- Phytotoxicity (Echinochloa oryzicola [14]): 0%
- Phytotoxicity (Rotala indica [15]): 10%
- Phytotoxicity (Elatine triandra [16]): 10%

SMILES: C=CC1(C)OC(=O)N(c2cc(Cl)cc(Cl)c2)C1=O (stereo not given) [VINCLOZOLIN]
- Phytotoxicity (Elatine triandra [1]): 50%
- Phytotoxicity (Rotala indica [2]): 50%
- Phytotoxicity [3]: 30%
- Phytotoxicity (Pontederia vaginalis [4]): 50%
- Phytotoxicity (Oryza sativa [5]): 0%
- Phytotoxicity (Lindernia procumbens [6]): 50%
- Phytotoxicity (Cyperus difformis [7]): 50%
- Phytotoxicity (Echinochloa oryzicola [8]): 90%

SMILES: CCOc1cc(N2C(=O)OC(=C(C)C)C2=O)c(F)cc1Cl
- Phytotoxicity (Zea mays): 10%
- Phytotoxicity (Chenopodium album): 90%
- Phytotoxicity (Amaranthus viridis): 100%
- Phytotoxicity (Digitaria ciliaris): 90%
- Phytotoxicity (Echinochloa crus-galli): 50%
- Phytotoxicity [9]: 60%
- Phytotoxicity (Oryza sativa [10]): 10%
- Phytotoxicity (Pontederia vaginalis [11]): 100%
- Phytotoxicity (Lindernia procumbens [12]): 100%
- Phytotoxicity (Cyperus difformis [13]): 100%
- Phytotoxicity (Echinochloa oryzicola [14]): 30%
- Phytotoxicity (Rotala indica [15]): 100%
- Phytotoxicity (Elatine triandra [16]): 100%

SMILES: CC(C)=C1OC(=O)N(c2cccc(Cl)c2)C1=O
- Phytotoxicity (Elatine triandra [1]): 30%
- Phytotoxicity (Rotala indica [2]): 30%
- Phytotoxicity [3]: 10%
- Phytotoxicity (Pontederia vaginalis [4]): 30%
- Phytotoxicity (Oryza sativa [5]): 0%
- Phytotoxicity (Lindernia procumbens [6]): 30%
- Phytotoxicity (Cyperus difformis [7]): 30%
- Phytotoxicity (Echinochloa oryzicola [8]): 0%

SMILES: COc1cc(N2C(=O)OC(=C(C)C)C2=O)c(F)cc1Cl
- Phytotoxicity (Zea mays): 30%
- Phytotoxicity (Chenopodium album): 90%
- Phytotoxicity (Amaranthus viridis): 80%
- Phytotoxicity (Digitaria ciliaris): 90%
- Phytotoxicity (Echinochloa crus-galli): 60%
- Phytotoxicity [9]: 10%
- Phytotoxicity (Oryza sativa [10]): 0%
- Phytotoxicity (Pontederia vaginalis [11]): 80%
- Phytotoxicity (Lindernia procumbens [12]): 100%
- Phytotoxicity (Cyperus difformis [13]): 100%
- Phytotoxicity (Echinochloa oryzicola [14]): 30%
- Phytotoxicity (Rotala indica [15]): 100%
- Phytotoxicity (Elatine triandra [16]): 100%

SMILES: CCC(C)Oc1cc(N2C(=O)OC(=C(C)C)C2=O)c(F)cc1Cl (stereo not given)
- Phytotoxicity (Zea mays): 0%
- Phytotoxicity (Chenopodium album): 10%
- Phytotoxicity (Amaranthus viridis): 90%
- Phytotoxicity (Digitaria ciliaris): 80%
- Phytotoxicity (Echinochloa crus-galli): 20%
- Phytotoxicity [9]: 100%
- Phytotoxicity (Oryza sativa [10]): 10%
- Phytotoxicity (Pontederia vaginalis [11]): 100%
- Phytotoxicity (Lindernia procumbens [12]): 100%
- Phytotoxicity (Cyperus difformis [13]): 100%
- Phytotoxicity (Echinochloa oryzicola [14]): 80%
- Phytotoxicity (Rotala indica [15]): 100%
- Phytotoxicity (Elatine triandra [16]): 100%
